Data as given in the supplement of paper PMC11208160.

Assay: recombinant barcode read abundance after kanamycin selection (control-corrected) (log10(CPM+1)); higher = more efficient recombination; sequences stand for … in AGTGCAGAGAAAATCGGCCAGTTTTCTCTGCCTGCAGTCCGCATGCCGT…ATTTATGCAGCGGACTGCCTTTCTCCCAAAGTGATAAACCGGACAGTATCATGGACCGGTTTTCCCGGTAATCCGTATTTGCAAGGTTGGTTTCACT; site = the 11-nt target
Outline: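 Pooled E. coli screen pairing targets with IS621 bridge RNA target-binding loops. Each oligo (promoter, target, barcode, J23119-driven first 104 bridge RNA bases) was Gibson-cloned into a vector with the remaining 73 bp and T7-inducible recombinase, then co-electroporated with a donor plasmid. Two replicates each were plated on chloramphenicol/ampicillin LB agar (control) or chloramphenicol/ampicillin/kanamycin with 0.1 mM IPTG. Recombination efficiency is recombinant-junction barcode counts as CPM, averaged, control-corrected, reported as log10(CPM+1).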

Point of comparison: “TTATAAACTTGGGTTCTAACCTGTTGCCTCG [TTATAAACTAG_LTGcore_CT_RTGcore_CG] (site TTATAAACTAG) (LTG core: CT, RTG core: CG)”, “recombinant barcode read abundance (log10)” value 0.154. Against it:
- TCTACCCTATGGGTTCTAACCTGTTGCTGTA [TCTACCCCTCA_LTGcore_TA_RTGcore_TA] (site TCTACCCCTCA) (LTG core: TA, RTG core: TA) — within 0.2 log units, 0.0877
- TCTACCCTTTGGGTTCTAACCTGTTGCTGAA [TCTACCCCTCA_LTGcore_TT_RTGcore_TT] (site TCTACCCCTCA) (LTG core: TT, RTG core: TT) — within 0.2 log units, 0.0207
- TCTACCCTTTGGGTTCTAACCTGTTGCTGAG [TCTACCCCTCA_LTGcore_TT_RTGcore_CT] (site TCTACCCCTCA) (LTG core: TT, RTG core: CT) — within 0.2 log units, 0.0279
- TGATACCAGTGGGTTCTAACCTGTTGCGTAG [TGATACCCTAC_LTGcore_AG_RTGcore_CT] (site TGATACCCTAC) (LTG core: AG, RTG core: CT) — within 0.2 log units, 0.0989
- TGATACCATTGGGTTCTAACCTGTTGCGTAG [TGATACCCTAC_LTGcore_AT_RTGcore_CT] (site TGATACCCTAC) (LTG core: AT, RTG core: CT) — within 0.2 log units, 0.0337
- TGATACCCGTGGGTTCTAACCTGTTGCGTAG [TGATACCCTAC_LTGcore_CG_RTGcore_CT] (site TGATACCCTAC) (LTG core: CG, RTG core: CT) — higher, 0.907
- TGATACCCGTGGGTTCTAACCTGTTGCGTCG [TGATACCCTAC_LTGcore_CG_RTGcore_CG] (site TGATACCCTAC) (LTG core: CG, RTG core: CG) — within 0.2 log units, 0.0552
- TGATACCCTTGGGTTCTAACCTGTTGCGTTG [TGATACCCTAC_LTGcore_CT_RTGcore_CA] (site TGATACCCTAC) (LTG core: CT, RTG core: CA) — higher, 1.25
- TGATACCGCTGGGTTCTAACCTGTTGCGTGC [TGATACCCTAC_LTGcore_GC_RTGcore_GC] (site TGATACCCTAC) (LTG core: GC, RTG core: GC) — within 0.2 log units, 0.107
- TGATACCGGTGGGTTCTAACCTGTTGCGTCC [TGATACCCTAC_LTGcore_GG_RTGcore_GG] (site TGATACCCTAC) (LTG core: GG, RTG core: GG) — within 0.2 log units, 0.115
- TGATACCTGTGGGTTCTAACCTGTTGCGTAG [TGATACCCTAC_LTGcore_TG_RTGcore_CT] (site TGATACCCTAC) (LTG core: TG, RTG core: CT) — within 0.2 log units, 0.064
- TGTATTCCCTGGGTTCTAACCTGTTGCCTGG [TGTATTCCTAG_LTGcore_CC_RTGcore_CC] (site TGTATTCCTAG) (LTG core: CC, RTG core: CC) — within 0.2 log units, 0.267
- TGTATTCCTTGGGTTCTAACCTGTTGCCTAT [TGTATTCCTAG_LTGcore_CT_RTGcore_AT] (site TGTATTCCTAG) (LTG core: CT, RTG core: AT) — within 0.2 log units, 0.192
- TGTATTCCTTGGGTTCTAACCTGTTGCCTCC [TGTATTCCTAG_LTGcore_CT_RTGcore_GG] (site TGTATTCCTAG) (LTG core: CT, RTG core: GG) — higher, 0.364
- TGTATTCCTTGGGTTCTAACCTGTTGCCTGT [TGTATTCCTAG_LTGcore_CT_RTGcore_AC] (site TGTATTCCTAG) (LTG core: CT, RTG core: AC) — within 0.2 log units, 0.0232
- TGTATTCGATGGGTTCTAACCTGTTGCCTTC [TGTATTCCTAG_LTGcore_GA_RTGcore_GA] (site TGTATTCCTAG) (LTG core: GA, RTG core: GA) — within 0.2 log units, 0.138
- TGTATTCGGTGGGTTCTAACCTGTTGCCTCC [TGTATTCCTAG_LTGcore_GG_RTGcore_GG] (site TGTATTCCTAG) (LTG core: GG, RTG core: GG) — within 0.2 log units, 0.0849
- TGTATTCGTTGGGTTCTAACCTGTTGCCTAC [TGTATTCCTAG_LTGcore_GT_RTGcore_GT] (site TGTATTCCTAG) (LTG core: GT, RTG core: GT) — within 0.2 log units, 0.00818
- TGTATTCTATGGGTTCTAACCTGTTGCCTTA [TGTATTCCTAG_LTGcore_TA_RTGcore_TA] (site TGTATTCCTAG) (LTG core: TA, RTG core: TA) — within 0.2 log units, 0.0243
- TGTATTCTTTGGGTTCTAACCTGTTGCCTAG [TGTATTCCTAG_LTGcore_TT_RTGcore_CT] (site TGTATTCCTAG) (LTG core: TT, RTG core: CT) — within 0.2 log units, 0.242
- TTATAAACTTGGGTTCTAACCTGTTGCCTAG [TTATAAACTAG_LTGcore_CT_RTGcore_CT] (site TTATAAACTAG) (LTG core: CT, RTG core: CT) — higher, 0.894
- TTATAAACTTGGGTTCTAACCTGTTGCCTGC [TTATAAACTAG_LTGcore_CT_RTGcore_GC] (site TTATAAACTAG) (LTG core: CT, RTG core: GC) — within 0.2 log units, 0.178
- TTATAAACTTGGGTTCTAACCTGTTGCCTTG [TTATAAACTAG_LTGcore_CT_RTGcore_CA] (site TTATAAACTAG) (LTG core: CT, RTG core: CA) — within 0.2 log units, 0.173
- TTATAAAGATGGGTTCTAACCTGTTGCCTTC [TTATAAACTAG_LTGcore_GA_RTGcore_GA] (site TTATAAACTAG) (LTG core: GA, RTG core: GA) — within 0.2 log units, 0.0936
- TTATAAAGGTGGGTTCTAACCTGTTGCCTCC [TTATAAACTAG_LTGcore_GG_RTGcore_GG] (site TTATAAACTAG) (LTG core: GG, RTG core: GG) — the same, 0.154
- TTATAAATCTGGGTTCTAACCTGTTGCCTGA [TTATAAACTAG_LTGcore_TC_RTGcore_TC] (site TTATAAACTAG) (LTG core: TC, RTG core: TC) — within 0.2 log units, 0.244
